In patent US11649222B2, “Compounds” (UNIVERSITETET I OSLO, priority 2016, dated 2023):
Several values for one entry are separate records, joined by “and”; a condition that tells them apart may be missing. Equal values may be shown once.

Assays:
[1] = test system: Klebsiella pneumoniae strain 50752501 harbouring NDM-1; assay: In vivo peritonitis infection study in neutropenic mice; design: Score at sampling: scale not given here
Protocol: The purpose of this study was to investigate the synergy between a typical example of the present invention and a state of art carbapenem in a clinically relevant multiresistant Gram-negative bacterial strain harboring a metallo-β-lactamase in the treatment of live mice infected with the bacterial strain.
The mice were rendered neutropenic by injecting 0.5 ml cyclophosphamide solution intraperitoneally 4 days (approximately 200 mg/kg) and 1 day (approximately 100 mg/kg) prior to inoculation.
Fresh overnight colonies from a 5% Horse Blood Agar plate were suspended and diluted in sterile saline to approximately and 10^7 CFU/ml. Mice were inoculated intraperitoneally with 0.5 ml of the suspension. Approximately ½ hr prior to inoculation, mice were treated orally with 45 μl neurophen (20 mg ibuprofen/ml corresponding to approximately 30 mg/kg) as a pain relief.
Mice were treated subcutaneously in the neck region with.
Colony counts were determined from blood and peritoneal fluid at 1 and 5 hrs post inoculation. […] The mice were sacrificed immediately after blood sampling and a total of 2 ml sterile saline was injected i.p. and the abdomen gently massaged before it was opened and fluid sampled with a pipette. Each sample was then 10 fold serial diluted in saline and 20-μl spots, ranging from undiluted to a 10^6 dilution, were applied on agar plates in duplicates. […] All agar plates were incubated 18-22 hrs at 35° C. in ambient air.

[2] = test system: Klebsiella pneumoniae harboring NDM-1; assay: Time-kill study with meropenem; type: cell-based; settings: 4 mg/L meropenem alone
Protocol: Mueller-Hinton broth (MHB) was warmed from fridge temperature cold. […] A sample of Example 26 was dissolved in DMSO.
The 96-well plates were prepared using a multi-channel pipette, adding […] PBS to columns 2-9, or the required number of dilutions needed in the experiment. Each Inoculum was prepared by picking a single colony from the fresh plate that was disperged into 1 mL MHB, the loop was agitated to ensure all the colony comes off the loop. The tube was Vortex mixed, and a 100 μL aliquot was taken from the tube into 9.9 mL of MHB into the media bottle. […] The procedure was repeated for as many samples needed in the study. Aliquots of 5 mL inoculum were transferred to as many media bottles as needed, e.g. 4 mg/L MEM, 4 mg/L MEM+50 μM test substance, 4 mg/L MEM+100 μM test substance. Then […] aliquots were taken from each culture and added to Column 1 on the 96 well plate, e.g. culture 1: 50 μl into A1, […] into B1 etc. for time point 0 h. Then […] MEM was added into each bottle, followed by the required amount of test substance. The bottles were mixed gently to avoid formation of bubbles, and incubated in a secondary container at 37° C. at 180 rpm. Finally, serial dilutions were performed using multi-channel pipette taking 30 μL for column 1, adding to column 2, mixing well, repeating from column 2 to 3 with clean pipette tips.

[3] = test system: K. pneumonia 50877064 (NDM-1); assay: Checkerboard MIC, Example 26 and meropenem; type: cell-based
Protocol: (§1) A checkerboard MIC assay was using the broth dilution method according to CLSI guidelines. […] Dilutions to 4 mg/ml was performed by adding+4.75 ml sterile saline to 0.25 ml of the stock solution, and dilutions to 512 μg/ml was performed by adding 10.9 ml MH-broth to the 4 mg/ml solution. Inoculums of bacterial strains as described in Table 4 were prepared by suspending fresh overnight colonies from 5% horse blood agar were to a turbidity of 0.5 McFarland and further diluted to 1×10^6 CFU/ml in MH-broth. Aliquots of 50 μl of MH-broth were added to each well of polystyrene microtiter plates. […] The plates were incubated at 35° C., 16-20 hours.

[4] = test system: K. pneumonia K46-62 (VIM-1); assay: Checkerboard MIC, Example 26 and meropenem; type: cell-based
Protocol: as §1

[5] = test system: K. pneumonia K66-45 (NDM-1); assay: Checkerboard MIC, Example 26 and meropenem; type: cell-based
Protocol: as §1

E. coli 50739822 (NDM-1) = assay: Checkerboard MIC, Example 26 and meropenem; type: cell-based
Protocol: as §1

[6] = test system: K. pneumonia K45-67 (VIM-1); assay: Checkerboard MIC, Example 26 and meropenem; type: cell-based
Protocol: as §1

[7] = test system: K. pneumonia 50752501 (NDM-1); assay: Checkerboard MIC, Example 26 and meropenem; type: cell-based
Protocol: as §1

E. coli AMA1563 (NDM-5) = assay: Checkerboard MIC, Example 26 and meropenem; type: cell-based
Protocol: as §1

[8] = test system: K. pneumonia 50923744 (VIM); assay: Checkerboard MIC, Example 26 and meropenem; type: cell-based
Protocol: as §1

[9] = test system: K. pneumonia 50690310 (NDM-1); assay: Checkerboard MIC, Example 26 and meropenem; type: cell-based
Protocol: as §1

E. coli 50921466 (VIM-1) = assay: Checkerboard MIC, Example 26 and meropenem; type: cell-based
Protocol: as §1

E. coli AMA323 (VIM-4) = assay: Checkerboard MIC, Example 26 and meropenem; type: cell-based
Protocol: as §1

E. coli AMA817 (NDM-1) = assay: Checkerboard MIC, Example 26 and meropenem; type: cell-based
Protocol: as §1

[10] = test system: K. pneumonia 50825040 (NDM-1); assay: Checkerboard MIC, Example 26 and meropenem; type: cell-based
Protocol: as §1

[11] = test system: K. pneumonia 50627996 (NDM-1); assay: Checkerboard MIC, Example 26 and meropenem; type: cell-based
Protocol: as §1

[12] = vehicle + meropenem 33 mg/kg, sampling T = 5, individual mice
[13] = Klebsiella pneumoniae, read-out: MIC alone, Meropenem
[14] = Escherichia coli, read-out: MIC alone, Meropenem

SMILES: C[C@@H](O)[C@H]1C(=O)N2C(C(=O)O)=C(S[C@@H]3CN[C@H](C(=O)N(C)C)C3)[C@H](C)[C@H]12 [meropenem, reference compound]
- lower CFU levels compared to vehicle treatment, blood ([1]; meropenem alone): 2.5 log10
- lower CFU levels compared to vehicle treatment, peritoneal fluid ([1]; meropenem alone): 2.2 log10
- Pf log CFU/ml mean ([1]; peritoneal fluid, vehicle + meropenem 33 mg/kg, sampling T = 5): 5.22 log CFU/ml
- Pf log CFU/ml ([1]; peritoneal fluid, vehicle + meropenem 33 mg/kg, sampling T = 5, individual mice): 5.72 log CFU/ml and 4.60 log CFU/ml and 5.30 log CFU/ml and 5.24 log CFU/ml
- Blood log CFU/ml mean ([1]; vehicle + meropenem 33 mg/kg, sampling T = 5): 2.98 log CFU/ml
- Blood log CFU/ml [1, 12]: 3.51 log CFU/ml (2×) and 2.80 log CFU/ml and 2.10 log CFU/ml
- Score at sampling [1, 12]: 2
- time after which CFU starts to increase [2]: about 5 hours
- MIC [3, 13]: 64 µg/mL
- MIC in combination, Meropenem ([3]; with Example 26): ≤0.0625 µg/mL
- MIC [4, 13]: 32 µg/mL
- MIC in combination, Meropenem ([4]; with Example 26): ≤0.0625 µg/mL
- MIC [5, 13]: 64 µg/mL
- MIC in combination, Meropenem ([5]; with Example 26): ≤0.0625 µg/mL
- MIC (E. coli 50739822 (NDM-1); [14]): 32 µg/mL
- MIC in combination, Meropenem (E. coli 50739822 (NDM-1); with Example 26): ≤0.0625 µg/mL
- MIC [6, 13]: 32 µg/mL
- MIC in combination, Meropenem ([6]; with Example 26): ≤0.0625 µg/mL
- MIC [7, 13]: 64 µg/mL
- MIC in combination, Meropenem ([7]; with Example 26): ≤0.0625 µg/mL
- MIC (E. coli AMA1563 (NDM-5); [14]): 64 µg/mL
- MIC in combination, Meropenem (E. coli AMA1563 (NDM-5); with Example 26): ≤0.0625 µg/mL
- MIC [8, 13]: 2 µg/mL
- MIC in combination, Meropenem ([8]; with Example 26): ≤0.0625 µg/mL
- MIC [9, 13]: 16 µg/mL
- MIC in combination, Meropenem ([9]; with Example 26): ≤0.0625 µg/mL
- MIC (E. coli 50921466 (VIM-1); [14]): 2 µg/mL
- MIC in combination, Meropenem (E. coli 50921466 (VIM-1); with Example 26): ≤0.0625 µg/mL
- MIC (E. coli AMA323 (VIM-4); [14]): 8 µg/mL
- MIC in combination, Meropenem (E. coli AMA323 (VIM-4); with Example 26): ≤0.0625 µg/mL
- MIC (E. coli AMA817 (NDM-1); [14]): 32 µg/mL
- MIC in combination, Meropenem (E. coli AMA817 (NDM-1); with Example 26): ≤0.0625 µg/mL
- MIC [10, 13]: 64 µg/mL
- MIC in combination, Meropenem ([10]; with Example 26): ≤0.0625 µg/mL
- MIC [11, 13]: 64 µg/mL
- MIC in combination, Meropenem ([11]; with Example 26): 0.125 µg/mL
